Experimental data as given in patent US20230113037A1 (Bayer Aktiengesellschaft, priority 2019, published 2023).
pIC50: −log10 of the molar value.

Molecular target: T1, AHR (Mus musculus, UniProt P30561)
T1 sequence (P30561 1-848 P471L/N533S/M589L): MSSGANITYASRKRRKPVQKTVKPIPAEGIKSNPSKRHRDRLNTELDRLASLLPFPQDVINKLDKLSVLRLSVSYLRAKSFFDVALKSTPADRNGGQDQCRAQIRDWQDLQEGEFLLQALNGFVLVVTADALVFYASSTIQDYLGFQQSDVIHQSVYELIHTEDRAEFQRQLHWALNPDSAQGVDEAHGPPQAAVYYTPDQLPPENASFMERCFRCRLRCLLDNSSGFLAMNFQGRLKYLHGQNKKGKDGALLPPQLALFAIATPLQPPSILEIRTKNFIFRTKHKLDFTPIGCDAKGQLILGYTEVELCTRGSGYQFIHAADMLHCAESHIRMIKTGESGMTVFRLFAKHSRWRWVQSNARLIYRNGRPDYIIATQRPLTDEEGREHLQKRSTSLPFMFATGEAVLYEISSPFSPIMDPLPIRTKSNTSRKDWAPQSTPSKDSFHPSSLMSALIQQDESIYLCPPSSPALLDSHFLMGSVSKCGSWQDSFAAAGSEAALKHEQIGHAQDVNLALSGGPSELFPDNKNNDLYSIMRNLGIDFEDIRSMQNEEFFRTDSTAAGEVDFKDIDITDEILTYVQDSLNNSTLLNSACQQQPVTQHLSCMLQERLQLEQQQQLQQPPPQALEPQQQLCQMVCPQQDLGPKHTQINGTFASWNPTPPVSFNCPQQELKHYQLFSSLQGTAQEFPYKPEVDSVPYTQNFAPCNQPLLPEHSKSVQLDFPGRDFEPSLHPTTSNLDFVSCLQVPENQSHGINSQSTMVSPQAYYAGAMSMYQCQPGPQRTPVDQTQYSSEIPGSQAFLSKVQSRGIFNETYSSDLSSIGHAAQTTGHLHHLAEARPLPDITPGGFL
Experiment: In vitro assay 3: antagonism in mouse cell line (AHR transactivation, firefly luciferase reporter, kynurenic acid prestimulated)
Type: cell-based
Conditions: mouse Hepa 1c1c7 cells, 200 μM kynurenic acid, 20 hours, read-out: AHR Antagonism Mouse IC50
Experimental: Examples were tested in selected biological assays one or more times. When tested more than once, data are reported as either average values or as median values, wherein • the average value, also referred to as the arithmetic mean value, represents the sum of the values obtained divided by the number of times tested, and • the median value represents the middle number of the group of values when ranked in ascending or descending order. If the number of values in the data set is odd, the median is the middle value. If the number of values in the data set is even, the median is the arithmetic mean of the two middle values.
In addition the cells were stably transfected with an AHR inducible firefly luciferase reporter gene construct that carried AHR-binding sites (DRE) in its promoter. Kynurenic acid is an endogenous AHR activating ligand and was used to prestimulate test cells prior to testing the antagonistic properties of compounds.
As positive inhibition control cells without addition of kynurenic acid were incubated. Normalization was done by positive and negative controls.
Firefly luciferase activity was determined by the SteadyGlo Luciferase Assay System (Promega, #E2550).

`COc1ccc(-c2nc3c4ccccc4nc(NC4CCCNC4=O)n3n2)cc1` (single isomer, unassigned) [Example 37, 3-{[2-(4-methoxyphenyl)[1,2,4]triazolo[1,5-c]quinazolin-5-yl]amino}piperidin-2-one] was tested. Which pIC50 did it give?
Its pIC50 is 6.62.

With `COc1ccc(-c2nc3c4c(Cl)cccc4nc(NC4CNCCNC4=O)n3n2)cc1` (single isomer, unassigned) [Example 296, 6-{[10-Chloro-2-(4-methoxyphenyl)[1,2,4]triazolo[1,5-c]quinazolin-5-yl]amino}-1,4-diazepan-5-one] as the compound, how does the pIC50 read?
Its pIC50 is 7.14.

How did the pIC50 turn out when `COc1ccc(-c2nc3c4c(Cl)cccc4nc(NC4CNCCNC4=O)n3n2)cc1` (single isomer, unassigned) [Example 297, 6-{[10-chloro-2-(4-methoxyphenyl)[1,2,4]triazolo[1,5-c]quinazolin-5-yl]amino}-1,4-diazepan-5-one] was run?
Its pIC50 is 7.60.

With `O=C1NCCNCC1Nc1nc2cccc(Cl)c2c2nc(-c3ccc(F)cc3)nn12` (single isomer, unassigned) [Example 298, 6-{[10-chloro-2-(4-fluorophenyl)[1,2,4]triazolo[1,5-c]quinazolin-5-yl]amino}-1,4-diazepan-5-one] as the compound, how does the pIC50 read?
The pIC50 was 7.20.

How did the pIC50 turn out when `O=C1NCCNCC1Nc1nc2cccc(Cl)c2c2nc(-c3ccc(F)cc3)nn12` (single isomer, unassigned) [Example 299, 6-{[10-chloro-2-(4-fluorophenyl)[1,2,4]triazolo[1,5-c]quinazolin-5-yl]amino}-1,4-diazepan-5-one] was run?
The pIC50 was 7.43.

`Cn1cc(-c2nc3c4cccc(C(F)(F)F)c4nc(NC4C(=O)NCC4(C)C)n3n2)cn1` (single isomer, unassigned; (+)) [Example 730, (+)-4,4-dimethyl-3-{[2-(1-methyl-1H-pyrazol-4-yl)-7-(trifluoromethyl)[1,2,4]triazolo[1,5-c]quinazolin-5-yl]amino}pyrrolidin-2-one] was tested. Which pIC50 did it give?
Its pIC50 is under 4.70.

How did the pIC50 turn out when `COc1ccc(-c2nc3c4c(Br)cccc4nc(N[C@@H]4CNCCNC4=O)n3n2)cc1` (stereo in doubt) [Example 281, 6-{[10-bromo-2-(4-methoxyphenyl)[1,2,4]triazolo[1,5-c]quinazolin-5-yl]amino}-1,4-diazepan-5-one] was run?
The pIC50 was 7.63.

`O=C1NCCCC[C@@H]1Nc1nc2ccccc2c2nc(-c3ccccc3)nn12` [Example 1, (3S)-3-[(2-phenyl[1,2,4]triazolo[1,5-c]quinazolin-5-yl)amino]azepan-2-one] was tested. Which pIC50 did it give?
Its pIC50 is 8.31.

How did the pIC50 turn out when `O=C1NCCCC[C@@H]1Nc1nc2ccccc2c2nc(-c3ccc(Cl)cc3)nn12` [Example 7, (3S)-3-{[2-(4-chlorophenyl)[1,2,4]triazolo[1,5-c]quinazolin-5-yl]amino}azepan-2-one] was run?
Its pIC50 is 8.61.

`Cn1cc(-c2nc3c4ccccc4nc(N[C@H](CO)C(N)=O)n3n2)cn1` [Example 16, N^2-[2-(1-methyl-1H-pyrazol-4-yl)[1,2,4]triazolo[1,5-c]quinazolin-5-yl]-D-serinamide] was tested. Which pIC50 did it give?
The pIC50 was under 4.70.

How did the pIC50 turn out when `COc1ccc(-c2nc3c4ccccc4nc(N[C@@H](CCCCNC(=O)OC(C)(C)C)C(N)=O)n3n2)cc1` [Example 25, tert-butyl [(5S)-6-amino-5-{[2-(4-methoxyphenyl)[1,2,4]triazolo[1,5-c]quinazolin-5-yl]amino}-6-oxohexyl]carbamate] was run?
The pIC50 was 6.31.

With `COc1ccc(-c2nc3c4ccccc4nc(N[C@H](CO)C(N)=O)n3n2)cc1` [Example 26, N^2-[2-(4-methoxyphenyl)[1,2,4]triazolo[1,5-c]quinazolin-5-yl]-D-serinamide] as the compound, how does the pIC50 read?
Its pIC50 is 7.78.

How did the pIC50 turn out when `COc1ccc(-c2nc3c4ccccc4nc(N[C@H](CC(C)C)C(N)=O)n3n2)cc1` [Example 27, N^2-[2-(4-methoxyphenyl)[1,2,4]triazolo[1,5-c]quinazolin-5-yl]-D-leucinamide] was run?
Its pIC50 is 8.01.

`COc1ccc(-c2nc3c4ccccc4nc(NC4CCCNC4=O)n3n2)cc1` (stereo not shown) [Example 28, 3-{[2-(4-methoxyphenyl)[1,2,4]triazolo[1,5-c]quinazolin-5-yl]amino}piperidin-2-one] was tested. Which pIC50 did it give?
Its pIC50 is 8.18.

`COc1ccc(-c2nc3c4ccccc4nc(N[C@H]4CCCCNC4=O)n3n2)cc1` [Example 30, (3S)-3-{[2-(4-methoxyphenyl)[1,2,4]triazolo[1,5-c]quinazolin-5-yl]amino}azepan-2-one] was tested. Which pIC50 did it give?
Its pIC50 is 8.01.

How did the pIC50 turn out when `COc1ccc(-c2nc3c4ccccc4nc(NC4CCNC4=O)n3n2)cc1` (stereo not shown) [Example 31, 3-{[2-(4-methoxyphenyl)[1,2,4]triazolo[1,5-c]quinazolin-5-yl]amino}pyrrolidin-2-one] was run?
Its pIC50 is 7.87.

`COc1ccc(-c2nc3c4ccccc4nc(NC4CNCCNC4=O)n3n2)cc1` (stereo not shown) [Example 34, 6-{[2-(4-methoxyphenyl)[1,2,4]triazolo[1,5-c]quinazolin-5-yl]amino}-1,4-diazepan-5-one] was tested. Which pIC50 did it give?
The pIC50 was 7.62.

How did the pIC50 turn out when `Cc1ccc(-c2nc3c4ccccc4nc(N[C@@H]4CCCCNC4=O)n3n2)cc1` [Example 56, (3R)-3-{[2-(4-methylphenyl)[1,2,4]triazolo[1,5-c]quinazolin-5-yl]amino}azepan-2-one] was run?
The pIC50 was 9.74.

`O=C1NCCCC[C@@H]1Nc1nc2ccccc2c2nc(-c3ccc(F)cc3)nn12` [Example 71, (3S)-3-{[2-(4-fluorophenyl)[1,2,4]triazolo[1,5-c]quinazolin-5-yl]amino}azepan-2-one] was tested. Which pIC50 did it give?
Its pIC50 is 8.41.

`O=C1NCCCC1Nc1nc2ccccc2c2nc(-c3ccc(F)cc3)nn12` (stereo not shown) [Example 72, 3-{[2-(4-fluorophenyl)[1,2,4]triazolo[1,5-c]quinazolin-5-yl]amino}piperidin-2-one] was tested. Which pIC50 did it give?
The pIC50 was 8.00.

How did the pIC50 turn out when `O=C1NCCC1Nc1nc2ccccc2c2nc(-c3ccc(F)cc3)nn12` (stereo not shown) [Example 73, 3-{[2-(4-fluorophenyl)[1,2,4]triazolo[1,5-c]quinazolin-5-yl]amino}pyrrolidin-2-one] was run?
The pIC50 was 8.41.

How did the pIC50 turn out when `COc1cccc(-c2nc3c4ccccc4nc(N[C@@H](C(=O)O)C(C)C)n3n2)c1` [Example 94, N-[2-(3-methoxyphenyl)[1,2,4]triazolo[1,5-c]quinazolin-5-yl]-D-valine] was run?
Its pIC50 is 7.77.

`CC[C@@H](Nc1nc2ccccc2c2nc(-c3cccc(OC)c3)nn12)C(=O)O` [Example 95, (2R)-2-{[2-(3-methoxyphenyl)[1,2,4]triazolo[1,5-c]quinazolin-5-yl]amino}butanoic acid] was tested. Which pIC50 did it give?
Its pIC50 is 6.40.

With `COc1cccc(-c2nc3c4ccccc4nc(N[C@H](CCSC)C(N)=O)n3n2)c1` [Example 96, N^2-[2-(3-methoxyphenyl)[1,2,4]triazolo[1,5-c]quinazolin-5-yl]-D-methioninamide] as the compound, how does the pIC50 read?
The pIC50 was 6.57.

`COc1cccc(-c2nc3c4ccccc4nc(NC(C)(C)C(N)=O)n3n2)c1` [Example 98, N^2-[2-(3-methoxyphenyl)[1,2,4]triazolo[1,5-c]quinazolin-5-yl]-2-methylalaninamide] was tested. Which pIC50 did it give?
Its pIC50 is 5.94.

How did the pIC50 turn out when `O=C1NCCCC[C@H]1Nc1nc2c(F)cccc2c2nc(-c3ccc(F)cc3)nn12` [Example 139, (3R)-3-{[7-fluoro-2-(4-fluorophenyl)[1,2,4]triazolo[1,5-c]quinazolin-5-yl]amino}azepan-2-one] was run?
Its pIC50 is 9.59.

How did the pIC50 turn out when `COc1cccc(-c2nc3c4cc(C)ccc4nc(N[C@H]4CCCCNC4=O)n3n2)c1` [Example 156, (3S)-3-{[2-(3-methoxyphenyl)-9-methyl[1,2,4]triazolo[1,5-c]quinazolin-5-yl]amino}azepan-2-one] was run?
The pIC50 was 7.85.

How did the pIC50 turn out when `COc1cccc(-c2nc3c4cc(C)ccc4nc(NC4CCCNC4=O)n3n2)c1` (stereo not shown) [Example 157, 3-{[2-(3-methoxyphenyl)-9-methyl[1,2,4]triazolo[1,5-c]quinazolin-5-yl]amino}piperidin-2-one] was run?
The pIC50 was 7.34.

`O=C1NCCCC[C@H]1Nc1nc2cccc(Br)c2c2nc(-c3ccc(F)cc3)nn12` [Example 166, (3R)-3-{[10-bromo-2-(4-fluorophenyl)[1,2,4]triazolo[1,5-c]quinazolin-5-yl]amino}azepan-2-one] was tested. Which pIC50 did it give?
Its pIC50 is 8.59.

How did the pIC50 turn out when `O=C1NCCCC[C@H]1Nc1nc2cccc(Cl)c2c2nc(-c3ccc(F)cc3)nn12` [Example 170, (3R)-3-{[10-chloro-2-(4-fluorophenyl)[1,2,4]triazolo[1,5-c]quinazolin-5-yl]amino}azepan-2-one] was run?
The pIC50 was 9.23.

With `COc1ccc(-c2nc3c4c(C)cccc4nc(NC4CNCCNC4=O)n3n2)cc1` (stereo not shown) [Example 192, 6-{[2-(4-methoxyphenyl)-10-methyl[1,2,4]triazolo[1,5-c]quinazolin-5-yl]amino}-1,4-diazepan-5-one] as the compound, how does the pIC50 read?
The pIC50 was 7.46.
